Measured values as given in patent US12435091B2, “RNA-binding protein multimerization inhibitors and methods of use thereof” (THE UAB RESEARCH FOUNDATION, priority 2020, dated 2025).
Like-named read-outs stand apart in the source and are kept apart here.

How the values were obtained:
[1] = tested on: PDGx XD456 glioma cell line; assay: PrestoBlue cell viability assay; assay type: cell-based
Protocol: (§1) PrestoBlue cell viability reagent (ThermoFisher Scientific; Waltham, MA) was used for cell viability assays. The inhibitory dose-response data were normalized to the control (treatment with vehicle); the inhibitory dose-response curves, which were fitted by using Boltzmann equation, and the corresponding IC50s were generated by using OriginPro software (OriginLab Corporation, CA).
(§2) The glioma suppressive potentials of the new class of HuR multimerization inhibitors were evaluated by utilizing SRI-41664 and SRI-42127 compounds in several cell-based assays. First, it was confirmed that the SRI-41664 and SRI-42127 compounds are cytotoxic for established and PDGx cell lines. FIG. 5A illustrates the inhibitory dose responses of SRI-41664 and SRI-42127 compounds in the established U251, LN229, and the PDGx XD456 glioma cell lines. […] An HuR-overexpression approach was employed to confirm SRI-42127 inhibitory potency against HuR dimerization.

LN229 glioma cell line = assay: PrestoBlue cell viability assay; assay type: cell-based; conditions: Homo sapiens, LN-229; LN229, 48 hours of treatment
Protocol: as §1, §2

U251 glioma cell line = assay: PrestoBlue cell viability assay; assay type: cell-based; conditions: Homo sapiens, U-251, 48 h
Protocol: as §1, §2

[2] = tested on: secreted inflammatory factors of microglia; assay: ELISA of secreted factors in culture medium of LPS-activated microglia; assay type: cell-based, mouse
Protocol: Major chemokines CXCL1, CXCL2 and CCL3 were suppressed by more than 2-fold. There was a mixed effect on markers of M2-like markers, with TGF-β1 and YM1 increasing and IL-10 decreasing. As these inflammatory factors were secreted, they were quantified by ELISA in culture medium. The greatest effect was with IL-6 which was suppressed at a lower dose of SRI-42127 (1.7-fold at 0.1 μM) and nearly 10-fold at 1.0 μM. IL-1β and TNF-α were suppressed by 5-fold at 1.0 μM.

HuR = target: T1, HuR (Homo sapiens, UniProt Q15717); assay: cell-based split firefly luciferase-HuR dimerization assay
T1 construct: expressed in transfected cells; host or cells: U251 glioma cells, doxycycline-inducible constructs
T1 sequence (Q15717 whole entry): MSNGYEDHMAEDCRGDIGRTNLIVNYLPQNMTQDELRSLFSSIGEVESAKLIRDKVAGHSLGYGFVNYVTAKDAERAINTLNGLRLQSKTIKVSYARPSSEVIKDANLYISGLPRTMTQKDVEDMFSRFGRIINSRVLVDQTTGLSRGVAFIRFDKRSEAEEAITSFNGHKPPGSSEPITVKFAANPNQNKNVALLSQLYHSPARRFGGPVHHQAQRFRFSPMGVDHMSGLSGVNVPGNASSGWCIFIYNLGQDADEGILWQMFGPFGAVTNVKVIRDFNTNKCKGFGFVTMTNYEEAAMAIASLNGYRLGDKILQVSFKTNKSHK
In short: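 U251 cells carrying HuR fused to N- or C-terminal split firefly luciferase halves (dimer reporter) or full-length Fluc (control); constructs induced with doxycycline 0.75 ug/ml for 48 h. Compounds at various concentrations vs vehicle for 6 h. Luciferin-driven luminescence read; mean+SD.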

Log D at pH 7.4 = assay type: physicochemical
Protocol: Selected compounds were assessed for their aqueous solubility, Log D and mouse and human liver microsomal stability.

microglia = assay: PrestoBlue cell viability assay in microglia; assay type: cell-based, mouse; conditions: tested dose range (up to 1 μM)
[3] = tested on: microglial lysates (iNOS, HuR, KSRP, Arginase 1, YM1); assay: Western blot analysis of microglial lysates; assay type: cell-based, mouse; conditions: 1.0 μM
[4] = tested on: Primary human neuronal cells; assay: cytotoxicity in primary human neurons (morphology, cell number, metabolism, cleaved caspase-3); assay type: cell-based
From the text: as §1
At the end of experiments, neurons and astrocytes were rinsed briefly with PBS and fixed by using 4% paraformaldehyde, pH 7.4 for 13 minutes at room temperature. Triton X-100 (0.3%) in PBST buffer (i.e., PBS with 0.1% Tween 20) was used for cell permeabilization for 30 minutes at room temperature. Cells were rinsed with PBST buffer 3 times for 10 minutes after fixation. Blocking buffer (3% BSA, 22.52 mg/ml glycine in PBST) was used to block unspecific antibody binding for 30 minutes at room temperature. Primary cleaved caspase 3 antibody (Cell Signaling Technology; Danvers, MA) at 1:200 dilution in PBST buffer with 1% BSA was utilized overnight at 4° C. for cleaved caspase 3 staining. The next day, cells were rinsed four times for 10 minutes with PBST buffer and then were incubated with secondary antibody (Alexa Fluor 594, goat anti-rabbit IgG, Invitrogen (Carlsbad, CA), 1:2000/5000 dilution) in PBST buffer with 1% BSA for 1 hour at room temperature in the dark. Next, cells were rinsed with PBST buffer 4 times for 10 minutes in the dark. Cell nucleus were stained with DAPI (4′,6-diamidino-2-phenylindole). Cell images were obtained with EVOS Fl (Life Technologies; Eugene, OR) imaging system.
The cellular metabolism declined by about 44% after treatment with SRI-42127, 25 uM for 48 hours as shown by FIG. 5E. […] Therefore, compound SRI-42127 inhibited glioma cell growth and had low neuronal and astrocyte cytotoxicity at concentrations below 15 uM.

CN(c1ccc2ncc(-c3ccc4cn[nH]c4c3)n2n1)C1CCOCC1 [Compound 19]
IC50 ([1]; Glioma cell, XD456, 48 hours of treatment): 4000 ± 600 nM
increase of IC50 for inhibition of cell viability ([1]; XD456, enhancement of HuR-dimer formation approximately by two-fold, 48 hours): 1.9±0.2 fold
IC50 (LN229 glioma cell line): 3200 ± 600 nM
IC50 (U251 glioma cell line; U251, 48 hours of treatment, read-out: IC50 cell viability): 2800 ± 600 nM
IC50 (U251 glioma cell line; U251 with dox-inducible HuR-dimerization reporters, after enhancement of HuR-dimer formation by two fold, 48 hours, read-out: IC50 for inhibition of cell viability): 8000 ± 800 nM
IC50 (U251 glioma cell line; U251 with dox-inducible HuR-dimerization reporters, before enhancement of HuR-dimer formation, 48 hours, read-out: IC50 for inhibition of cell viability): 2800 ± 400 nM
suppression of secreted IL-6 ([2]; 0.1 μM): 1.7 fold
suppression of secreted IL-1β ([2]; 1.0 μM): 5 fold
suppression of secreted IL-6 ([2]; 1.0 μM): ~10 fold
suppression of secreted TNF-α ([2]; 1.0 μM): 5 fold
HuR inhibition activity (in words) (HuR): active
HuR N/C Imax % Inh (HuR; Concn 50 uM): 90%
IC50 (HuR; U251 cells co-expressing HuR-Nluc and HuR-Cluc, 6 hours of treatment, read-out: HuR IC50): 1200 ± 200 nM
IC50 (HuR; U251 with dox-inducible HuR-dimerization reporters, after increase in HuR dimerization by two fold, 6 hours, read-out: IC50 for inhibition of HuR dimerization): 1900 ± 100 nM
IC50 (HuR; U251 with dox-inducible HuR-dimerization reporters, before increase in HuR dimerization, 6 hours, read-out: IC50 for inhibition of HuR dimerization): 1200 ± 100 nM
maximum inhibition of HuR dimerization (HuR; after 6 hours of cell treatment): 90±1%
IC50 (HuR; split luciferase HuR dimerization assay, compounds administered for 6 hours, read-out: HuR IC50): 1500 nM
logD (Log D at pH 7.4): 3.1
toxicity to microglia (microglia): did not cause toxicity
suppression of iNOS protein [3]: 4.2 fold
decline of cellular metabolism ([4]; 25 uM for 48 hours): about 44%
cleaved caspase-3 immunostaining ([4]; neurons, up to 15 uM, 48 hours): no significant alterations
morphological changes of neurons ([4]; up to 15 uM for 48 hours): no morphological changes
neuron cell numbers and cell sprouting ([4]; up to 15 uM for 48 hours, listed as SRI-42127): remained unchanged
